Values of other authors as cited in patent US20070297988A1, “Optical probes for in vivo imaging” (priority 2006, published 2007).

Key:
[1] = administered intravenously
[2] = degradation accelerated by light and heat

plasmatic half-life [1]: 2 to 4 min
protein binding [1]: extensive protein binding
stability in aqueous solution [2]: degraded in aqueous solution
SMILES: CC1(C)C(/C=C/C=C/C=C/C=C2\N(CCCCS(=O)(=O)O)c3ccc4ccccc4c3C2(C)C)=[N+](CCCCS(=O)(=O)[O-])c2ccc3ccccc3c21 [ICG, indocyanine green]
